In publication PMC10576769 (Nature Communications, 2023):
Values joined by “and” are separate entries in the source; they are usually repeats but may differ in a detail not shown here. Identical values can stand only once. Like-named read-outs stand apart in the source and are kept apart here. Where a SMILES comes first, the peptide text is derived from it.

Columns and labels:
[1] = test system: BcPC-PLC; format: biochemical, Bacillus cereus
[2] = test system: CpPC-PLC; format: biochemical, Clostridium perfringens
[3] = test system: BcPC-PLC; format: biochemical, Bacillus cereus; remark: listed apart in the source
[4] = test system: CpPC-PLC; format: biochemical, Clostridium perfringens; remark: listed apart in the source
[5] = test system: LmPC-PLC^C143S; format: biochemical, Listeria monocytogenes; conditions: Fig. 4g, as E100
[6] = test system: LmPC-PLC^C168S; format: biochemical, Listeria monocytogenes; conditions: Fig. 4g, as E100
[7] = test system: LmPC-PLC^C143S+C168S; format: biochemical, Listeria monocytogenes; conditions: Fig. 4g, as E100
[8] = target: LmPC-PLC (Listeria monocytogenes serovar 1/2a, UniProt P33378); assay: biochemical; format: biochemical; conditions: for Enzymatic activity towards 4-NPPC (slope): Lm 500 nM, 0 = no slope could be determined; for Enzymatic activity towards 4-NPPC (slope) / Activity of LmPC-PLC towards 4-NPPC (slope): 4-NPPC 1 mM; for Activity of LmPC-PLC towards 4-NPPC (slope): LmPC-PLC 500 nM, 20 mM MES pH 6.5, 150 mM NaCl, 50 μM ZnSO4
[9] = format: binding; conditions: pH 6.5

With `C[C@H](NC(=O)[C@@H](N)CC(N)=O)C(=O)N[C@@H](CS)C(=O)N[C@@H](CS)C(=O)N[C@@H](CC(=O)O)C(=O)N[C@@H](CCC(=O)O)C(=O)O` [NE-6] (H-NACCDE-OH; N-terminus and C-terminus assumed) the “relative activity on 4-NPPC (compared to uninhibited activity), Bc” value [1] was 0.9308 and 0.8774 and 0.8898, the “relative activity on 4-NPPC (compared to uninhibited activity), Cp” value [2] was 0.8963 and 0.9574 and 0.885 and the “relative activity on POPC (compared to uninhibited activity), Bc” value [3] was 1.041 and 0.8984 and 0.9777. The “relative activity on POPC (compared to uninhibited activity), Cp” value [4] was 1.136 and 1.059 and 1.144, the “relative activity of LmPC-PLC C143S on 4-NPPC (compared to uninhibited activity)” value ([5]; replicate 1) was 0.8443 and the “relative activity of LmPC-PLC C143S on 4-NPPC (compared to uninhibited activity)” value ([5]; replicate 2) was 0.9328. The “relative activity of LmPC-PLC C143S on 4-NPPC (compared to uninhibited activity)” value ([5]; replicate 3) was 0.9098, the “relative activity of LmPC-PLC C168S on 4-NPPC (compared to uninhibited activity)” value ([6]; replicate 1) was 0.4893 and the “relative activity of LmPC-PLC C168S on 4-NPPC (compared to uninhibited activity)” value ([6]; replicate 2) was 0.5344. The “relative activity of LmPC-PLC C168S on 4-NPPC (compared to uninhibited activity)” value ([6]; replicate 3) was 0.4659, the “relative activity of LmPC-PLC C143S+ C168S on 4-NPPC (compared to uninhibited activity)” value ([7]; replicate 1) was 1.106 and the “relative activity of LmPC-PLC C143S+ C168S on 4-NPPC (compared to uninhibited activity)” value ([7]; replicate 2) was 1.078. For the same compound, the “relative activity of LmPC-PLC C143S+ C168S on 4-NPPC (compared to uninhibited activity)” value ([7]; replicate 3) was 1.062.
With `c1cnc2c(c1)ccc1cccnc12` [O-phe, O-phenanthroline] the “Enzymatic activity towards 4-NPPC (slope)” value ([8]; O-phe 1 mM + ions (50 μM ZnSO4), replicate 1) was 0, the “Enzymatic activity towards 4-NPPC (slope)” value ([8]; O-phe 1 mM + ions (50 μM ZnSO4), replicate 2) was 0 and the “Enzymatic activity towards 4-NPPC (slope)” value ([8]; O-phe 1 mM + ions (50 μM ZnSO4), replicate 3) was 0. The “Enzymatic activity towards 4-NPPC (slope)” value ([8]; O-phe 1 mM, no ions added, replicate 1) was 0, the “Enzymatic activity towards 4-NPPC (slope)” value ([8]; O-phe 1 mM, no ions added, replicate 2) was 0 and the “Enzymatic activity towards 4-NPPC (slope)” value ([8]; O-phe 1 mM, no ions added, replicate 3) was 0. The “inhibition of LmPC-PLC activity by O-phe” value ([8]; O-phe 1 mM, 50 μM Zn2+ added to the protein, 30 min preincubation, 4-NPPC, Supplementary Fig. 9c) was “completely inhibited”, the “Activity of LmPC-PLC towards 4-NPPC (slope)” value ([8]; inhibitor 4 uM, replicate 1 of N=3) was 0.0003865 abs/min and the “Activity of LmPC-PLC towards 4-NPPC (slope)” value ([8]; inhibitor 4 uM, replicate 2 of N=3) was 0.0003893 abs/min. For the same compound, the “Activity of LmPC-PLC towards 4-NPPC (slope)” value ([8]; inhibitor 4 uM, replicate 3 of N=3) was 0.0004002 abs/min, the “Activity of LmPC-PLC towards 4-NPPC (slope)” value ([8]; inhibitor 8 uM, replicate 1 of N=3) was 0.0003883 abs/min and the “Activity of LmPC-PLC towards 4-NPPC (slope)” value ([8]; inhibitor 8 uM, replicate 2 of N=3) was 0.0003708 abs/min. The “Activity of LmPC-PLC towards 4-NPPC (slope)” value ([8]; inhibitor 8 uM, replicate 3 of N=3) was 0.0003802 abs/min, the “Activity of LmPC-PLC towards 4-NPPC (slope)” value ([8]; inhibitor 16 uM, replicate 1 of N=3) was 0.0003736 abs/min and the “Activity of LmPC-PLC towards 4-NPPC (slope)” value ([8]; inhibitor 16 uM, replicate 2 of N=3) was 0.0003589 abs/min. The “Activity of LmPC-PLC towards 4-NPPC (slope)” value ([8]; inhibitor 16 uM, replicate 3 of N=3) was 0.0003489 abs/min, the “Activity of LmPC-PLC towards 4-NPPC (slope)” value ([8]; inhibitor 31 uM, replicate 1 of N=3) was 0.0003148 abs/min and the “Activity of LmPC-PLC towards 4-NPPC (slope)” value ([8]; inhibitor 31 uM, replicate 2 of N=3) was 0.0003263 abs/min. The “Activity of LmPC-PLC towards 4-NPPC (slope)” value ([8]; inhibitor 31 uM, replicate 3 of N=3) was 0.0003082 abs/min, the “Activity of LmPC-PLC towards 4-NPPC (slope)” value ([8]; inhibitor 63 uM, replicate 1 of N=3, value 0 = no slope could be determined) was 0.0002666 abs/min and the “Activity of LmPC-PLC towards 4-NPPC (slope)” value ([8]; inhibitor 63 uM, replicate 2 of N=3, value 0 = no slope could be determined) was 0.0002954 abs/min. The “Activity of LmPC-PLC towards 4-NPPC (slope)” value ([8]; inhibitor 63 uM, replicate 3 of N=3, value 0 = no slope could be determined) was 0.000224 abs/min, the “Activity of LmPC-PLC towards 4-NPPC (slope)” value ([8]; inhibitor 125 uM, replicate 1 of N=3, value 0 = no slope could be determined) was 8.381e-5 abs/min and the “Activity of LmPC-PLC towards 4-NPPC (slope)” value ([8]; inhibitor 125 uM, replicate 2 of N=3, value 0 = no slope could be determined) was 0.0001203 abs/min. The “Activity of LmPC-PLC towards 4-NPPC (slope)” value ([8]; inhibitor 125 uM, replicate 3 of N=3, value 0 = no slope could be determined) was 8.369e-5 abs/min, the “Enzymatic activity towards 4-NPPC (slope)” value [1] was 0 and the “Enzymatic activity towards 4-NPPC (slope)” value [2] was 0. For the same compound, the “% of LLO in the pellet fraction” value [9] was 22.84%.
